Bridge positions count the residues as written; N and C are the ends. Peptide text beside a SMILES is read from it.
What was measured:
[1] = test system: thapsigargin-induced IFN-g production in human whole blood; type: cell-based; conditions: read-out: Analogue Activity (IC50) WB/IFNg
[2] = test system: thapsigargin-induced IL-2 production in human whole blood; conditions: read-out: Analogue Activity (IC50) WB/IL-2

| Structure (SMILES) | IC50 [1] | IC50 [2] |
| --- | --- | --- |
| CC[C@H](C)[C@@H]1NC(=O)[C@H](CCCCN)NC(=O)[C@@H](NC(=O)[C@H](CCCCN)NC(=O)[C@@H](NC(=O)[C@H](CC(N)=O)NC(=O)[C@@H](NC(=O)[C@@H](NC(=O)[C@@H](NC(=O)CN)C(C)C)[C@@H](C)CC)[C@@H](C)CC)C(C)C)CSSC[C@@H]2NC(=O)[C@H](CCCCN)NC(=O)CNC(=O)[C@H](Cc3ccccc3)NC(=O)[C@H](CCCNC(=N)N)NC(=O)[C@H](CCSC)NC(=O)CNC(=O)[C@H](C)NC(=O)[C@H](CCCCN)NC(=O)[C@H](CCCCN)NC(=O)[C@@H]3CSSC[C@@H](C(=O)N[C@H](C(=O)N4CCC[C@H]4C(=O)N[C@@H](CCCCN)C(=O)O)[C@@H](C)O)NC(=O)[C@H](Cc4c[nH]cn4)NC(=O)[C@H](CSSC[C@H](NC(=O)[C@H](C)NC(=O)[C@H](CCCNC(=N)N)NC(=O)[C@H](CO)NC1=O)C(=O)N[C@@H](CC(C)C)C(=O)N[C@@H](CCC(=O)O)C(=O)N1CCC[C@H]1C(=O)N3)NC(=O)[C@H](CCCCN)NC(=O)CNC(=O)[C@H](CC(N)=O)NC(=O)[C@H](CCSC)NC2=O [Q13A] (H-GVIINVKCKISRACLEPCKKAGMRFGKCMNGKCHCTPK-OH; disulfide 8-28, 14-33, 18-35) | 0.133 nM | 0.148 nM |
| CC[C@H](C)[C@@H]1NC(=O)[C@H](CCCCN)NC(=O)[C@@H](NC(=O)[C@H](CCCCN)NC(=O)[C@@H](NC(=O)[C@H](CC(N)=O)NC(=O)[C@@H](NC(=O)[C@@H](NC(=O)[C@@H](NC(=O)CN)C(C)C)[C@@H](C)CC)[C@@H](C)CC)C(C)C)CSSC[C@@H]2NC(=O)[C@H](CCCCN)NC(=O)CNC(=O)[C@H](Cc3ccccc3)NC(=O)[C@H](CCCNC(=N)N)NC(=O)[C@H](CCSC)NC(=O)CNC(=O)[C@H](C)NC(=O)[C@H](CCCCN)NC(=O)[C@H](CCCCN)NC(=O)[C@@H]3CSSC[C@@H](C(=O)N[C@H](C(=O)N4CCC[C@H]4C(=O)N[C@@H](CCCCN)C(=O)O)[C@@H](C)O)NC(=O)[C@H](Cc4c[nH]cn4)NC(=O)[C@H](CSSC[C@H](NC(=O)[C@H](CCC(=O)O)NC(=O)[C@H](CCCNC(=N)N)NC(=O)[C@H](CO)NC1=O)C(=O)N[C@@H](CC(C)C)C(=O)N[C@@H](CCC(=O)O)C(=O)N1CCC[C@H]1C(=O)N3)NC(=O)[C@H](CCCCN)NC(=O)CNC(=O)[C@H](CC(N)=O)NC(=O)[C@H](CCSC)NC2=O [Q13E] (H-GVIINVKCKISRECLEPCKKAGMRFGKCMNGKCHCTPK-OH; disulfide 8-28, 14-33, 18-35) | 0.799 nM | 1.06 nM |
| CC[C@H](C)[C@@H]1NC(=O)[C@H](CCCCN)NC(=O)[C@@H](NC(=O)[C@H](CCCCN)NC(=O)[C@@H](NC(=O)[C@H](CC(N)=O)NC(=O)[C@@H](NC(=O)[C@@H](NC(=O)[C@@H](NC(=O)CN)C(C)C)[C@@H](C)CC)[C@@H](C)CC)C(C)C)CSSC[C@@H]2NC(=O)[C@H](CCCCN)NC(=O)CNC(=O)[C@H](Cc3ccccc3)NC(=O)[C@H](CCCNC(=N)N)NC(=O)[C@H](CCSC)NC(=O)CNC(=O)[C@H](C)NC(=O)[C@H](CCCCN)NC(=O)[C@H](CCCCN)NC(=O)[C@@H]3CSSC[C@@H](C(=O)N[C@H](C(=O)N4CCC[C@H]4C(=O)N[C@@H](CCCCN)C(=O)O)[C@@H](C)O)NC(=O)[C@H](Cc4c[nH]cn4)NC(=O)[C@H](CSSC[C@H](NC(=O)[C@H](CCCNC(=N)N)NC(=O)[C@H](CCCNC(=N)N)NC(=O)[C@H](CO)NC1=O)C(=O)N[C@@H](CC(C)C)C(=O)N[C@@H](CCC(=O)O)C(=O)N1CCC[C@H]1C(=O)N3)NC(=O)[C@H](CCCCN)NC(=O)CNC(=O)[C@H](CC(N)=O)NC(=O)[C@H](CCSC)NC2=O [Q13R] (H-GVIINVKCKISRRCLEPCKKAGMRFGKCMNGKCHCTPK-OH; disulfide 8-28, 14-33, 18-35) | 0.172 nM | 0.16 nM |
